Test results as given in patent US12391672B2, “Solid forms comprising (S)-4-(4-(4-(((2-(2,6-dioxopiperidin-3-yl)-1-oxoisoindolin-4-yl)oxy)methyl)benzyl)piperazin-1-yl)-3-fluorobenzonitrile and salts thereof, and compositions comprising and methods of using the same” (Celgene Corporation, priority 2019, dated 2025).

How the values were obtained:
Assay type in all cases: physicochemical
[1] = Dynamic vapor sorption / hygroscopicity
Method in brief: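 Sample equilibrated at 50% r.h. on a microbalance, then one cycle at ±5% r.h. h^−1 spanning 0–95% r.h., with 5 h holds at 0% and 95% r.h. and 2 h holds at 50% r.h., run either desorption-first or sorption-first. Hygroscopicity classed from mass gain at 85% r.h. relative to initial mass.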

[2] = Solubility of polymorphic forms in physiologically relevant media and final pH
Source text: Solubility data of the several polymorphic forms of Compound 1 in physiologically relevant media and the final pH of these solutions are summarized in the following tables.

[3] = Competitive slurry and slurry stability experiments
Method: Form B was obtained at room temperature while form C was obtained at 45° C. in acetone alone.
(§1) The HBr salt was largely insoluble in various buffers when 1 mg/mL slurries were prepared and the mother liquor concentration determined (by HPLC): <0.05 mg/mL in all buffers tested.

[4] = HBr salt solubility in buffers (1 mg/mL slurries, mother liquor by HPLC); conditions: all buffers tested
Method: as §1

[5] = Solid state stability under accelerated storage conditions; conditions: 40° C./75% RH, 80° C. and ambient light/temperature for 1 week
Method in brief: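 Solid forms stored at 60 °C and 60 °C/75% RH (Form A 1 week, Form B 2 weeks); Form K held 14 d at 40 °C, 40 °C/75% RH, 60 °C, 60 °C/75% RH and light, versus refrigerated/ambient. Assessed by DSC/TGA, appearance, HPLC purity, chiral HPLC (S-isomer area %) and XRPD post-DVS.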

## Br.N#Cc1ccc(N2CCN(Cc3ccc(COc4cccc5c4CN([C@H]4CCC(=O)NC4=O)C5=O)cc3)CC2)c(F)c1
[1]; DVS, class by mass gain at 85% r.h.
  hygroscopicity: slightly hygroscopic (slightly hygroscopic (mass increase of <2% but ≥0.2%))
[1]; after the DVS humidity cycle
  solid form after DVS cycle: remains as Form A
[1]; relative humidity from about 0% to about 95%
  DVS mass increase: about 0.7%
[1]; relative humidity from about 5% to about 90%
  DVS mass increase: about 0.7%
[1]; up to 90% RH
  DVS mass increase: ~0.69%
[2]; FaSSIF
  Solubility: <LOQ
[2]; FeSSiF
  Solubility: 0.111 mg/mL
[2]; SGF with pepsin
  Solubility: 0.077 mg/mL
[2]; Water, t0
  Solubility: 0.301(t0), mg/ml
[2]; Water, t24
  Solubility: 0.212 mg/mL
[2]; pH 1 buffer HC1/NaC1
  Solubility: 0.018 mg/mL
[2]; pH 3 buffer (phosphate)
  Solubility: 0.032 mg/mL
[2]; pH 4 buffer (acetate)
  Solubility: 0.038 mg/mL
[2]; pH 5 buffer (acetate)
  Solubility: 0.004 mg/mL
[2]; solubility sample in FaSSIF
  Final pH: 6.40
[2]; solubility sample in FeSSiF
  Final pH: 5.16
[2]; solubility sample in SGF with pepsin
  Final pH: 1.15
[2]; solubility sample in Water
  Final pH: 4.53
[2]; solubility sample in pH 1 buffer HC1/NaC1
  Final pH: 0.95
[2]; solubility sample in pH 3 buffer (phosphate)
  Final pH: 3.11
[2]; solubility sample in pH 4 buffer (acetate)
  Final pH: 4.18
[2]; solubility sample in pH 5 buffer (acetate)
  Final pH: 5.08
[3]; slurried in water for ~24 h
  disproportionation in water: did not appear to disproportionate back to the free base
[3]; various water activities
  slurry in acetone/water mixtures (XRPD): no hydrate formation evident
[4]
  mother liquor concentration in buffers: < 0.05 mg/mL
[5]
  physical (XRPD) and chemical (HPLC) stability: both physically and chemically stable
